# Data taken from US5726203A, “Qinghaosu derivatives against AIDS” (priority 1993, dated 1998).
# Assays:
# [1] = cited from earlier work
# HIV-infected macrophages = details: cited from earlier work
# U937 HIV-1 [2] = assay: Inhibition effect on HIV-1 infected U937 cells, activity of reverse transcriptase; assay type: cell-based; details: control 24502
# Source text: (§1) Furthermore, a part of the compounds according to the present invention were used to test their inhibition effect on U937 cell line (macrophage cell line)according to the methods in Experiment 1.
# U937 HIV-1 [3] = assay: Inhibition effect on HIV-1 infected U937 cells (macrophage cell line), HIV antigen test (IE); assay type: cell-based; details: for Antigen test (IE): U937 HIV-1
# Procedure: (§2) a. Freshly cultured MT4 cells (5×10^5 /ml) were co-cultivated with the virus fluid (10^3 TCID50 /ml) in a CO2 incubator at 37° C. for 1-1.5 hours. RPMI 1640 complete medium (containing 10% Bovine serum and antibiotics, such as penicillin) was used to wash the unbound virus.
# (§3) Complete medium was added to correct the concentration for use.
# (§4) The experiment was carried out on the plates with 96 wells. 0.1 ml of the above-mentioned infected MT4 cell suspension was added into each well, and then 0.1 ml of various concentrations of the drugs were added. […] Each concentration of the drugs was added into two wells. Both the experiment group and the control group were incubated in a CO2 incubator at 37° C. The drug solution were changed 3 days later, and the following observations were carried out 6 days afterwards.
# (§5) c. Determination of the virus antigen expression. The immunoenzymatic method was used to examine the virus antigen expression. Cells from each group were separately smeared in two wells. They were fixed with cold acetone, HIV-positive serum was dropped into the wells. After incubated in a CO2 incubator at 37° C. for 30 minutes, they were washed with PBS for 3 times. Enzyme-labelled SPA was dropped into the wells. They were incubated in the same condition for 30 minutes, washed with PBS for 3 times, and then put in substrate solution to stain for 2-3 minutes, washed with distilled water, and observed under microscope. Normal cells were colorless, whereas virus-carrying cells appeared browrish red.
# as §1
# HIV-1 (MT4) = assay: Anti-HIV effect on MT4 cells, virus antigen expression (immunoenzymatic method); assay type: cell-based
# Source text: The virus used was HIV-1 which had been obtained from Professor Montagnier of the Pastear Institute, France. The virus titer used in the experiment was 1×10^4 TCID50 /ml. The cell culture used was CEM cell line which was cultivated in the HIV laboratory of Institute of Virology, Chinese Academy of Preventive Medicine, for cultivation storage of HIV-1.
# The compounds used in the experiment were qinghaosu, dihydroqinghaosu, Artesunate, Artemether, dihydroqinghaosu-methylcarbamate, dihydroqinghaosu-benzenecarbamate, qinghaosu-morpholinyl propylether maleate, dihydroqinghaosu-diethyl amino ethyl ether maleate, deoxyqinghaosu-morpholinyl ethyl ether maleate, qinghaosu-morpholinyl propanol ether maleate, qinghaosu-3,5-dimonpholinyl methyl-4-hydroxy benzyl ether maleate, dihydroqinghaosu-m-chlorobenzoate, qinghaosu-3-pyrrolidinylmethyl-4-hydroxybenzoate oxalate, and qinghaosu-3-morpholinylmethyl-4-hydroxybenzoate oxalate. […] The concentration of the original solution of these compounds were all 1 mg/ml.
# as §2, §3, §4
# b. Observation on the growth situation of cells. Trypan blue dye was used to observe the quantity of live cells in each group.
# as §5
# The mark used were as follows:
# The experiment was repeated two to three times.
# The concentration of the original fluid of these compounds were all 1 mg/ml. 0.1 ml was taken and added into 0.1 ml of virus-carrying cell suspension, thus the reaction concentrations were as follows: in the original fluid group, 0.1 mg/0.2 ml, i.e., 0.5 mg/ml; in 1×10^-1group, 0.05 mg/ml; in 1×10^-2 group, 0.005 mg/ml; in 1×10^-3 group, 0.0005 mg/ml, i.e., 0.5 μg/ml; and on the analogy of this.
# [4] = test system: virus within infected macrophages; details: cited from earlier work
# HIV = details: cited from earlier work
# [5] = Subacute toxicologic study; details: in vivo, read-out: basic safe dosage
# Plasmodium Berghei = assay: Peters' four day inhibition test in mice, erythrocytic stage of Plasmodium Berghei; assay type: in vivo; details: once a day D0-D3, Hybrid Kunming strain mice, read-out: SD50 (the source's name)
# Source text: Effect on Erythrocytic Stage of Plasmodium Berghei 1. "Four day inhibition test" in mice To determinate the SD50 with Peters' "four day inhibition test". Hybrid Kunming strain mice, body weight 18-22 g, were inculated with 1×10^7 parasites infected RBC intraperitoneally on D0. Dihydroqinghaosu-methylcarbamate, dihydroqinghaosu-butylcarbamate, dihydroqinghaosu-benzenecarbamate and dihydroqinghaosu-4-nitrobenzenecarbamate with different concentration were given once a day from D0 -D3. Blood smears from mouse's tail were made on D4, stained with Gimsa reagent and examined under microscope to count the infected and uninfected erthrocyte to get infected rate. Inhibitory rates of different dosages were calculated by following formula. The SD50 was calculated by the simplified probit analysis: [formula]
# Acute toxicity in mice = assay type: in vivo; details: for LD50: mouse, in vivo, po
# Procedure: Animals: Hybrid swiss strain mice (provided by Animal House of Institute of Chinese Mateia Media, China Academy of Traditional Chinese Medicine), 20-22 grams, less than 6 weeks age of both sexes fed in laboretory for 3-5 days observation and a random taking food and drinking.
# Drugs: Dihydroqinghaosu-methylcarbamate and dihydroqinghaosu-benzenecarbamate.
# Above two drugs in powder form were dissolved into peanut oil. The biggest dose were 2000 mg/kg and 2161 mg/kg respectively. The distances between two dose groups were 0.7 and 0.68 respectively, with 5 dose groups each drugs.
# Method: The mice were given single dose of above compound respectively intragastrically, the acute intoxication manifestrations were observed the LD value (LD5, LD50 and LD95) and B value were determined by three days mortality.
# [6] = F + M, single dose intragastrically
# [7] = F, single dose intragastrically
# [8] = M, single dose intragastrically
compound,measurement,setting,value
Trichosanthin,neurotoxicity in clinical trial,[1]; clinical trial,"neurotoxicity in clinical trial, and in severe cases temporary dementia and even coma appeared"
same,toxic substance from treated HIV-infected macrophages,HIV-infected macrophages,produced and released a soluble toxic substance which might exert serious destructive effect to human brain cells
"Cc1cn([C@H]2C[C@H](N=[N+]=[N-])[C@@H](CO)O2)c(=O)[nH]c1=O [AZT, 3'-azido-3'-deoxythymidine, reference compound]",toxicity after use,[1]; 4-6 weeks after the use of AZT,"inhibition of bone marrow appears, then severe anemia develops"
same,Activity of reverse transcription (CPM),U937 HIV-1 [2]; 1 μg/ml,10865 CPM
same,Antigen test (IE),U937 HIV-1 [3]; 1 μg/ml,+ (there were 2-3 or more positive cells in the whole well)
same,inhibition on U937 infected HIV-1,U937 HIV-1 [3]; from Table 2,does not show the inhibition
same,"effect on HIV-1 (MT4), virus antigen expression",HIV-1 (MT4); 1 × 10^-1 (50 μg/ml),- (positive cells were not seen in the whole well)
same,virus-carrying (pink) cells on the smear,"HIV-1 (MT4); 1×10^-1, 1×10^-2, 1×10^-3 group",entirely no pink cells
same,"effect on HIV-1 (MT4), virus antigen expression",HIV-1 (MT4); 1 × 10^-2 (5 μg/ml),- (positive cells were not seen in the whole well)
same,"effect on HIV-1 (MT4), virus antigen expression",HIV-1 (MT4); 1 × 10^-3 (0.5 μg/ml),- (positive cells were not seen in the whole well)
same,inhibitory effect on the virus within infected macrophages,[4],does not exert inhibitory effect on the virus within infected macrophages
same,anti-HIV activity in vitro,HIV,found to possess anti-HIV activity in vitro
CC1CCC2C(C)C(OC(=O)Nc3ccccc3)OC3OC4(C)CCC1C32OO4 (stereo not shown) [Dihydroqinghaosu-benzenecarbamate],Activity of reverse transcription (CPM),U937 HIV-1 [2]; 50 μg/ml,2305 CPM
same,NOAEL,[5],54 mg/kg/day
same,Antigen test (IE),U937 HIV-1 [3]; 50 μg/ml,- (positive cells were not seen in the whole well)
same,"effect on HIV-1 (MT4), virus antigen expression",HIV-1 (MT4); 1 × 10^-1 (50 μg/ml),- (positive cells were not seen in the whole well)
same,"effect on HIV-1 (MT4), virus antigen expression",HIV-1 (MT4); 1 × 10^-2 (5 μg/ml),- (positive cells were not seen in the whole well)
same,"effect on HIV-1 (MT4), virus antigen expression",HIV-1 (MT4); 1 × 10^-3 (0.5 μg/ml),- (positive cells were not seen in the whole well)
same,"effect on HIV-1 (MT4), virus antigen expression",HIV-1 (MT4); 1 × 10^-4 (0.05 μg/ml),± (there were only 1-2 doubtful positive cells in whole well)
same,inhibition on HIV,HIV-1 (MT4); according to Table 1,distinct inhibition on HIV
same,ED50,Plasmodium Berghei,0.29 mg/kg
same,"Death distribution of mice, exp./death","Acute toxicity in mice; 480 mg/kg, female",6/0
same,"Death distribution of mice, exp./death","Acute toxicity in mice; 480 mg/kg, female + male",12/1
same,"Death distribution of mice, exp./death","Acute toxicity in mice; 480 mg/kg, male",6/1
same,"Death distribution of mice, exp./death","Acute toxicity in mice; 686 mg/kg, female",6/1
same,"Death distribution of mice, exp./death","Acute toxicity in mice; 686 mg/kg, female + male",12/3
same,"Death distribution of mice, exp./death","Acute toxicity in mice; 686 mg/kg, male",6/2
same,"Death distribution of mice, exp./death","Acute toxicity in mice; 980 mg/kg, female",6/2
same,"Death distribution of mice, exp./death","Acute toxicity in mice; 980 mg/kg, female + male",12/4
same,"Death distribution of mice, exp./death","Acute toxicity in mice; 980 mg/kg, male",6/2
same,"Death distribution of mice, exp./death","Acute toxicity in mice; 1400 mg/kg, female",6/4
same,"Death distribution of mice, exp./death","Acute toxicity in mice; 1400 mg/kg, female + male",12/7
same,"Death distribution of mice, exp./death","Acute toxicity in mice; 1400 mg/kg, male",6/3
same,"Death distribution of mice, exp./death","Acute toxicity in mice; 2000 mg/kg, female",6/6
same,"Death distribution of mice, exp./death","Acute toxicity in mice; 2000 mg/kg, female + male",12/12
same,"Death distribution of mice, exp./death","Acute toxicity in mice; 2000 mg/kg, male",6/6
same,LD5,Acute toxicity in mice; [6],463.33 mg/kg
same,LD95,Acute toxicity in mice; [6],2452.08 mg/kg
same,slope (B),Acute toxicity in mice; [6],4.546
same,LD5,Acute toxicity in mice; [7],603.91 mg/kg
same,LD95,Acute toxicity in mice; [7],1993.51 mg/kg
same,slope (B),Acute toxicity in mice; [7],6.343
same,LD5,Acute toxicity in mice; [8],352.10 mg/kg
same,LD95,Acute toxicity in mice; [8],3069.59 mg/kg
same,slope (B),Acute toxicity in mice; [8],3.498
same,LD50,Acute toxicity in mice; [6],1070 mg/kg
same,LD50,Acute toxicity in mice; [7],1100 mg/kg
same,LD50,Acute toxicity in mice; P.O. (per os),1060 mg/kg
same,LD50,Acute toxicity in mice; single dose intragastrically,1040 mg/kg
